Experimental data taken from US11634417B2 (Array BioPharma Inc., priority 2019, dated 2023).

Experiments:
[1] = target: T1, full-length SHP2 (Homo sapiens, UniProt Q06124); assay: SHP2 enzymatic assay (fluorescence intensity kinetic assay, DiFMUP hydrolysis); format: biochemical; details: 1 nM His6-tagged SHP2(2-527), 1 μM activating peptide, 50 μM DiFMUP; single assay or mean of multiple assays; read-out: Biological Example 1 IC50
T1 construct: 1 nM full-length SHP2 (His6-tagged SHP2(2-527), recombinantly expressed in E. coli and purified in-house); His6; made in house; host or cells: E. coli
T1 sequence (Q06124 2-527): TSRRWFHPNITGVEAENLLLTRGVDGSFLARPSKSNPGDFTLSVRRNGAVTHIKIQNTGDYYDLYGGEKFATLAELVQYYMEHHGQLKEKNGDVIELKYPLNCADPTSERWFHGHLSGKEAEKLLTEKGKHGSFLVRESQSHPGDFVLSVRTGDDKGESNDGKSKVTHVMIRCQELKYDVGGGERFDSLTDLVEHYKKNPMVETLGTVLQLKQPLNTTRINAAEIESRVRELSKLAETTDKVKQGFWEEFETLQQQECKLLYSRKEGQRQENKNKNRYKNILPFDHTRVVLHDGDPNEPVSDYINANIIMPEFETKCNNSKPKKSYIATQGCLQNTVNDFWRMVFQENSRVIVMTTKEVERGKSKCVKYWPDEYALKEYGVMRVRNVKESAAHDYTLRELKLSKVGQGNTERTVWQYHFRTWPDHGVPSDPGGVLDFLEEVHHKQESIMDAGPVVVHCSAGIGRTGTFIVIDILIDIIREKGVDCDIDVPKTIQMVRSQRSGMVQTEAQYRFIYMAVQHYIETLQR
Experimental: A fluorescence intensity kinetic assay was configured for full-length SHP2 that monitors the amount of 6,8-difluoro-7-hydroxy-4-methylcoumarin (“DiFMU”) formed upon hydrolysis of 6,8-difluoro-4-methylumbelliferyl phosphate (“DiFMUP”) by SHP2. […] Low control wells lacked enzyme. The assays were initiated by the addition of a mixture of SHP2 and the activating peptide, and following a 15 second mix on an orbital shaker, were read in kinetic mode for 15 minutes (30 seconds/cycle) at ambient temperature on a PerkinElmer EnVision microplate reader (kEx=355 nm, kEm=460 nm). Initial velocities (slopes of the tangents at t=0) were estimated from exponential fits to the slightly nonlinear progress curves and then were converted to percent of control (“POC”) using the following equation:
[formula] • Where: xmax Average Uninhibited Controls • Xmin Average Background A 4-parameter logistic model was the fit to the POC data for each compound. From that fit, the IC50 was estimated and is defined as the concentration of compound at which the curve crosses 50 POC.

[2] = tested on: ERK1/2 (Thr202/Tyr204) phosphorylation in KYSE520 cells; assay: Cellular Phospho-p44/42 MAPK (Erk1/2) (Thr202/Tyr204) assay, In-Cell Western; format: cell-based; details: Homo sapiens, KYSE-520; KYSE520 cells, 1 hour incubation, pERK signal normalized to GAPDH; single assay or mean of multiple assays; read-out: Biological Example 2 IC50
Experimental: Inhibition of ERK1/2 (Thr202/Tyr204) phosphorylation was determined by the following cellular assay, which comprises incubating cells with a compound for 1 hour and quantifying pERK signal by In-Cell Western on fixed cells and normalizing to GAPDH signal. KYSE520 cells were obtained from DSMZ and grown in RPMI supplemented with 10% fetal bovine serum, penicillin/streptomycin, 2 mM L-alanyl-L-glutamine dipeptide in 0.85% NaCl (Glutamax™), non-essential amino acids, and sodium pyruvate. Cells were plated in 96-well plates at 30,000 cells/well and allowed to attach overnight at 37° C./5% CO2. Cells were treated with compounds prepared as a 10-point, 1:3 dilution series (range: 20 μM-1 nM), with a final DMSO concentration of 0.5%. After 1 hour incubation, cells were fixed in 3.7% formaldehyde in Dulbecco's phosphate-buffered saline (“dPBS”) at room temperature for 20 minutes. Cells were then washed with dPBS and permeabilized in 100% MeOH at room temperature for 10 minutes. Following permeabilization, cells were washed in dPBS and incubated in LI-COR Blocking Buffer (LI-COR Biosciences, Cat #927-40000) for 1 hour or longer. Plates were then incubated with an antibody specific for the MEK-dependent ERK1/2 phosphorylation sites, threonine 202 and tyrosine 204 (Cell Signaling Technologies; Cat #9101), downstream of SHP2 in the MAP kinase signal transduction pathway, as well as GAPDH (Millipore; Cat #MAB374). pErk1/2 (Thr202/Tyr204) antibody was diluted in LI-COR blocking buffer containing 0.05% polysorbate-20 (Tween-20) at 1:250; GAPDH was diluted at 1:2,500. The plates were incubated overnight at 4° C. After washing with PBS/0.05% Tween-20, the cells were incubated with fluorescently-labeled secondary antibodies (Anti-rabbit-Alexa Flour680, Invitrogen Cat #A21109; Anti-mouse-IRDye800CW, Li-cor Bioscieces Cat #926-32210, both at 1:1000 dilution) for 1 hour. Cells were then washed, as above, and analyzed for fluorescence at both 680 nm and 800 nm wavelengths using the Aerius Infrared Imaging System (LI-COR Biosciences, Model 9250). Phosphorylated Erk1/2 ([…]) signal was normalized to GAPDH signal for each well. IC50 values were calculated from the normalized values using a 4-parameter fit in BioAssay software. The reported IC50 in Table 2 may be from a single assay or the mean of multiple assays.

## N[C@@H]1c2ccccc2CC12CCN(c1ncc(Sc3ccccc3)nn1)CC2 [Example 32, (S)-1′-(6-(phenylthio)-1,2,4-triazin-3-yl)-1,3-dihydrospiro[indene-2,4′-piperidin]-1-amine]
[1]
  IC50: 5 nM
[2]
  IC50: 14 nM

## CC1(N)CCCN(c2ncc(Sc3ccnc(N)c3Cl)nn2)CC1 (centres unmarked) [Example 10, 1-(6-((2-amino-3-chloropyridin-4-yl)thio)-1,2,4-triazin-3-yl)-4-methylazepan-4-amine]
[1]
  IC50: 551 nM
[2]
  IC50: 687 nM

## COc1ccc2c(c1)[C@@H](N)C1(CCN(c3ncc(Sc4ccnc(N)c4Cl)nn3)CC1)C2 [Example 84, (S)-1′-(6-((2-amino-3-chloropyridin-4-yl)thio)-1,2,4-triazin-3-yl)-6-methoxy-1,3-dihydrospiro[indene-2,4′-piperidin]-1-amine]
[1]
  IC50: 24 nM
[2]
  IC50: 2 nM

## Cc1nccc(Sc2cnc(N3CCC4(CC3)CO[C@@H](C)[C@H]4N)nn2)c1Cl [Example 14, (3S,4S)-8-(6-((3-chloro-2-methylpyridin-4-yl)thio)-1,2,4-triazin-3-yl)-3-methyl-2-oxa-8-azaspiro[4.5]decan-4-amine]
[1]
  IC50: 53 nM
[2]
  IC50: 61 nM

## Cc1nc2c(s1)[C@H](N)C1(CCN(c3ncc(Sc4ccnc(N)c4Cl)nn3)CC1)C2 [Example 57, (R)-1′-(6-((2-amino-3-chloropyridin-4-yl)thio)-1,2,4-triazin-3-yl)-2-methyl-4,6-dihydrospiro[cyclopenta[d]thiazole-5,4′-piperidin]-6-amine]
[1]
  IC50: 643 nM
[2]
  IC50: 139 nM

## Nc1nccc(Sc2cnc(N3CCC4(CC3)Oc3ccccc3[C@H]4N)nn2)c1Cl [Example 23, (R)-1′-(6-((2-amino-3-chloropyridin-4-yl)thio)-1,2,4-triazin-3-yl)-3H-spiro[benzofuran-2,4′-piperidin]-3-amine]
[1]
  IC50: 35 nM
[2]
  IC50: 12 nM

## N[C@@H]1c2cccnc2CC12CCN(c1ncc(Sc3cccc4c3CC4)nn1)CC2 [Example 38, (S)-1′-(6-(bicyclo[4.2.0]octa-1(6),2,4-trien-2-ylthio)-1,2,4-triazin-3-yl)-5,7-dihydrospiro[cyclopenta[b]pyridine-6,4′-piperidin]-5-amine]
[1]
  IC50: 13 nM
[2]
  IC50: 41 nM

## N[C@@H]1c2ccccc2CC12CCN(c1ncc(Sc3ccnc(C(F)(F)F)c3Cl)nn1)CC2 [Example 51, (S)-1′-(6-((3-chloro-2-(trifluoromethyl)pyridin-4-yl)thio)-1,2,4-triazin-3-yl)-1,3-dihydrospiro[indene-2,4′-piperidin]-1-amine]
[1]
  IC50: 93 nM
[2]
  IC50: 78 nM

## N[C@@H]1c2ccccc2CC12CCN(c1ncc(Oc3ccccc3)nn1)CC2 [Example 81, (S)-1′-(6-phenoxy-1,2,4-triazin-3-yl)-1,3-dihydrospiro[indene-2,4′-piperidin]-1-amine]
[1]
  IC50: 4 nM
[2]
  IC50: 8 nM

## N[C@@H]1c2ccccc2CC12CCN(c1ncc(Sc3c[nH]c4ncccc34)nn1)CC2 [Example 26, (S)-1′-(6-((1H-pyrrolo[2,3-b]pyridin-3-yl)thio)-1,2,4-triazin-3-yl)-1,3-dihydrospiro[indene-2,4′-piperidin]-1-amine]
[1]
  IC50: 49 nM
[2]
  IC50: 120 nM

## Nc1nccc(Sc2cnc(N3CCC4(CC3)Cc3ncsc3[C@H]4N)nn2)c1Cl [Example 58, (S)-1′-(6-((2-amino-3-chloropyridin-4-yl)thio)-1,2,4-triazin-3-yl)-4,6-dihydrospiro[cyclopenta[d]thiazole-5,4′-piperidin]-6-amine]
[1]
  IC50: 39 nM
[2]
  IC50: 1 nM

## Nc1nccc(Sc2cnc(N3CCC4(CC3)Oc3ncccc3[C@H]4N)nn2)c1Cl [Example 77]
[1]
  IC50: 74 nM
[2]
  IC50: 92 nM

## Cc1nccc(Sc2cnc(N3CCC4(CC3)Cc3ccccc3[C@H]4N)nn2)c1C [Example 50, (S)-1′-(6-((2,3-dimethylpyridin-4-yl)thio)-1,2,4-triazin-3-yl)-1,3-dihydrospiro[indene-2,4′-piperidin]-1-amine]
[1]
  IC50: 44 nM
[2]
  IC50: 6 nM

## Cc1ccc2c(n1)CC1(CCN(c3ncc(Sc4ccnc(N)c4Cl)nn3)CC1)[C@H]2N [Example 60]
[1]
  IC50: 109 nM
[2]
  IC50: 528 nM

## NC1C[C@@H]2CC[C@@H](C1)N2c1ncc(Sc2cccc(Cl)c2Cl)nn1 (stereo partly drawn) [Example 12, (1R,3s,5S)-8-(6-((2,3-dichlorophenyl)thio)-1,2,4-triazin-3-yl)-8-azabicyclo[3.2.1]octan-3-amine]
[1]
  IC50: 174 nM
[2]
  IC50: 1110 nM

## Nc1nccc(Sc2cnc(N3CCC4(CC3)Cc3ncccc3[C@H]4N)nn2)c1Cl [Example 24, (S)-1′-(6-((2-amino-3-chloropyridin-4-yl)thio)-1,2,4-triazin-3-yl)-5,7-dihydrospiro[cyclopenta[b]pyridine-6,4′-piperidin]-5-amine]
[1]
  IC50: 47 nM
[2]
  IC50: 5 nM

## N[C@@H]1c2ccccc2CC12CCN(c1ncc(-c3ccccc3)nn1)CC2 [Example 79, (S)-1′-(6-phenyl-1,2,4-triazin-3-yl)-1,3-dihydrospiro[indene-2,4′-piperidin]-1-amine]
[1]
  IC50: 84 nM
[2]
  IC50: 697 nM

## CNc1nccc(Sc2cnc(N3CCC4(CC3)Cc3ncccc3[C@H]4N)nn2)c1Cl [Example 39, (S)-1′-(6-((3-chloro-2-(methylamino)pyridin-4-yl)thio)-1,2,4-triazin-3-yl)-5,7-dihydrospiro[cyclopenta[b]pyridine-6,4′-piperidin]-5-amine]
[1]
  IC50: 78 nM
[2]
  IC50: 11 nM

## CC1(N)CCCN(c2ncc(Sc3cccc(Cl)c3Cl)nn2)CC1 (centres unmarked) [Example 11, 1-(6-((2,3-dichlorophenyl)thio)-1,2,4-triazin-3-yl)-4-methylazepan-4-amine]
[1]
  IC50: 210 nM
[2]
  IC50: 1970 nM

## COc1cnc2c(c1)[C@@H](N)C1(CCN(c3ncc(Sc4ccnc(N)c4Cl)nn3)CC1)C2 (single isomer, unassigned) [Example 44]
[1]
  IC50: 37 nM
[2]
  IC50: 4 nM

## Cc1cccc2c1CC1(CCN(c3ncc(Sc4ccnc(N)c4Cl)nn3)CC1)[C@@H]2N [Example 48, (S)-1′-(6-((2-amino-3-chloropyridin-4-yl)thio)-1,2,4-triazin-3-yl)-4-methyl-1,3-dihydrospiro[indene-2,4′-piperidin]-1-amine]
[1]
  IC50: 30 nM
[2]
  IC50: 5 nM

## COc1nccc(Sc2cnc(N3CCC4(CC3)Cc3ccccc3[C@H]4N)nn2)c1Cl [Example 55, (S)-1′-(6-((3-chloro-2-methoxypyridin-4-yl)thio)-1,2,4-triazin-3-yl)-1,3-dihydrospiro[indene-2,4′-piperidin]-1-amine]
[1]
  IC50: 116 nM
[2]
  IC50: 23 nM
